Data as given in ChEMBL document CHEMBL1201862, “PubChem BioAssay data set” (2004).
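Test compounds were applied to cells in 96-well plates for 48 hours at 5 doses. At the GI50, growth is halved.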 Active and inactive are the calls of the source. Cut-off read from the data, not from the text of the source: active = GI50 up to about 1.1 µM and inactive = higher.

What was measured:
Test in all cases: NCI tumour cell line growth inhibition, 48 h
[1] = tested on: 786-0
[2] = tested on: A549
[3] = tested on: CCRF-CEM
[4] = tested on: EKVX
[5] = tested on: HCC 2998
[6] = tested on: IGROV-1
[7] = tested on: KM12
[8] = tested on: LOX IMVI
[9] = tested on: MDA-MB-231
[10] = tested on: NCI-H23
[11] = tested on: OVCAR-4
[12] = tested on: OVCAR-5
[13] = tested on: RXF 393
[14] = tested on: SK-MEL-5
[15] = tested on: SNB-75
[16] = tested on: SW-620
[17] = tested on: T47D
[18] = tested on: TK-10
[19] = tested on: U-251
[20] = tested on: UO-31

SMILES	GI50 [1]	GI50 [2]	GI50 [3]	GI50 [4]	GI50 [5]	GI50 [6]	GI50 [7]	GI50 [8]	GI50 [9]	GI50 [10]	GI50 [11]	GI50 [12]	GI50 [13]	GI50 [14]	GI50 [15]	GI50 [16]	GI50 [17]	GI50 [18]	GI50 [19]	GI50 [20]
O=C(Nc1cccc2ccccc12)c1ccccc1	> 100 µM (inactive)	> 100 µM (inactive)	27.1 µM (inactive)	> 100 µM (inactive)	> 100 µM (inactive)	> 100 µM (inactive)	> 100 µM (inactive)	> 100 µM (inactive)	> 100 µM (inactive)	> 100 µM (inactive)	24.5 µM (inactive)	> 100 µM (inactive)	26.7 µM (inactive)	53.5 µM (inactive)	21.8 µM (inactive)	34.4 µM (inactive)	11.5 µM (inactive)	> 100 µM (inactive)	> 100 µM (inactive)	> 100 µM (inactive)
COc1ccc(CC2OC3(CCCCC3)CC3CCCCN32)cc1 (centres undefined)	> 100 µM (inactive)	> 100 µM (inactive)	47 µM (inactive)	> 100 µM (inactive)	> 100 µM (inactive)	> 100 µM (inactive)	> 100 µM (inactive)	48.3 µM (inactive)	10.3 µM (inactive)	> 100 µM (inactive)	> 100 µM (inactive)	> 100 µM (inactive)	> 100 µM (inactive)	49.2 µM (inactive)	91.2 µM (inactive)	39.4 µM (inactive)	> 100 µM (inactive)	> 100 µM (inactive)	> 100 µM (inactive)	> 100 µM (inactive)
COC(=O)/C=C\C(C#N)(C#N)/N=C/c1cccc(OC)c1	3.51 µM (inactive)	17.9 µM (inactive)	1.72 µM (inactive)	11.6 µM (inactive)	16.3 µM (inactive)	11.7 µM (inactive)	16.4 µM (inactive)	7.16 µM (inactive)	13.2 µM (inactive)	6.9 µM (inactive)	6.67 µM (inactive)	8.49 µM (inactive)	3.18 µM (inactive)	16.8 µM (inactive)	15.9 µM (inactive)	2.13 µM (inactive)	4.8 µM (inactive)	1.91 µM (inactive)	15.9 µM (inactive)	2.74 µM (inactive)
CCc1ccc2c(c1)/C(=C1/Nc3ccccc3/C1=N/O)C(=O)N2	6.61 µM (inactive)	6.37 µM (inactive)	3.21 µM (inactive)	5.19 µM (inactive)	3.3 µM (inactive)	5.08 µM (inactive)	0.117 µM (active)	6.76 µM (inactive)	20 µM (inactive)	5.18 µM (inactive)	6.67 µM (inactive)	18.6 µM (inactive)	2.81 µM (inactive)	3.7 µM (inactive)	11.8 µM (inactive)	4.53 µM (inactive)	6.28 µM (inactive)	11.5 µM (inactive)	9.31 µM (inactive)	4.12 µM (inactive)
CN(C)C1(N(C)C)Oc2c(c(=O)n(C)c(=O)n2C)C(c2ccc(Br)cc2)C1(F)F (centres undefined)	> 100 µM (inactive)	> 100 µM (inactive)	> 100 µM (inactive)	> 100 µM (inactive)	> 100 µM (inactive)	–	> 100 µM (inactive)	> 100 µM (inactive)	> 100 µM (inactive)	> 100 µM (inactive)	> 100 µM (inactive)	> 100 µM (inactive)	> 100 µM (inactive)	> 100 µM (inactive)	> 100 µM (inactive)	> 100 µM (inactive)	> 100 µM (inactive)	> 100 µM (inactive)	> 100 µM (inactive)	> 100 µM (inactive)
CN(CCNC(=O)c1n[nH]c2c1Cc1ccccc1-2)CCNC(=O)c1n[nH]c2c1Cc1ccccc1-2	16 µM (inactive)	20.6 µM (inactive)	18.1 µM (inactive)	20.6 µM (inactive)	15.4 µM (inactive)	16.3 µM (inactive)	17.3 µM (inactive)	18.9 µM (inactive)	19 µM (inactive)	17.2 µM (inactive)	15.9 µM (inactive)	18.6 µM (inactive)	15.3 µM (inactive)	16.9 µM (inactive)	12.5 µM (inactive)	22.1 µM (inactive)	18.8 µM (inactive)	19.1 µM (inactive)	19.3 µM (inactive)	19.4 µM (inactive)
CC1=C(OC2OC(CO)C(O)C(O)C2O)C(=O)C[C@H]2C1=CC[C@@H]1[C@@]2(C)C(=O)C[C@]2(C)[C@@H]([C@@](C)(O)C(=O)CCC(C)(C)O)[C@H](O)C[C@@]12C (some centres undefined)	> 100 µM (inactive)	> 100 µM (inactive)	> 100 µM (inactive)	> 100 µM (inactive)	> 100 µM (inactive)	> 100 µM (inactive)	> 100 µM (inactive)	> 100 µM (inactive)	> 100 µM (inactive)	> 100 µM (inactive)	> 100 µM (inactive)	> 100 µM (inactive)	> 100 µM (inactive)	> 100 µM (inactive)	> 100 µM (inactive)	> 100 µM (inactive)	> 100 µM (inactive)	> 100 µM (inactive)	> 100 µM (inactive)	> 100 µM (inactive)
